Experimental data reported in the NIST ThermoML archive (doi:10.1021/je700022b).

Details: Liquid; for viscosity: Falling or rolling sphere viscometry; for mass density: Constant-volume piezometry

CCCCn1cc[n+](C)c1.F[P-](F)(F)(F)(F)F [1-butyl-3-methylimidazolium hexafluorophosphate]
Details	mass density, 293.15 K [kg/m3]	mass density, 313.15 K [kg/m3]	mass density, 333.15 K [kg/m3]	mass density, 353.15 K [kg/m3]	viscosity, 293.15 K [mPa·s]	viscosity, 313.15 K [mPa·s]	viscosity, 333.15 K [mPa·s]	viscosity, 353.15 K [mPa·s]
100 kPa	–	–	–	–	395	–	–	–
15000 kPa	1377	1362	1346	1330	468	140	61	29.3
20000 kPa	1379	1364	1349	1332	504	151	63.2	30.5
